Test results as given in patent publication US20240285552A1 (priority 2020, published 2024).
Structures can show the parent of a compound that is named as a salt. Where two headings read alike, the source gives them in different places.

Experiments:
[1] = tested on: B.1.617.2 Delta Variant of SARS-CoV-2; assay: microbe, parasite or virus in culture; assay type: cell-based; conditions: for IC50: read-out: IC 50 against B.1.617.2 Delta Variant Infection-Induced CPE
[2] = tested on: SARS-CoV-2 spike (B.1.617.2 Delta Variant) pseudotyped lentivirus; assay: microbe, parasite or virus in culture; assay type: cell-based; conditions: for inhibition at 10 µM: HEK293, 10 μM
[3] = Severe acute respiratory syndrome coronavirus 2, Vero C1008, Vero E6
[4] = Lentivirus, read-out: Percent (%) Inhibition of Pseudo virus Entry in HEK293 Kidney Cells, B.1.617.2 Delta Variant

| SMILES | Conc. at Max. % Inhibition [1] | Max. Inhibition [1] | IC50 [1, 3] | Percent (%) Inhibition of Pseudo virus Entry in HEK293 Kidney Cells, B.1.617.2 Delta Variant ([2]; 100 μM) | inhibition at 10 µM [2, 4] | IC50 ([1]; Vero E6) | Percent (%) Inhibition of Pseudo virus Entry in HEK293 Kidney Cells, B.1.617.2 Delta Variant ([2]; 50 μM, hydrochloride) | Percent (%) Inhibition of Pseudo virus Entry in HEK293 Kidney Cells, B.1.617.2 Delta Variant ([2]; 100 μM, hydrochloride) | inhibition at 25 µM ([2]; Lentivirus, HEK293, 25 μM, read-out: Percent (%) Inhibition of Pseudo virus Entry in HEK293 Kidney Cells, B.1.617.2 Delta Variant) | inhibition at 50 µM ([2]; Lentivirus, HEK293, 50 μM, read-out: Percent (%) Inhibition of Pseudo virus Entry in HEK293 Kidney Cells, B.1.617.2 Delta Variant) | inhibition at 100 µM ([2]; Lentivirus, HEK293, 100 μM, read-out: Percent (%) Inhibition of Pseudo virus Entry in HEK293 Kidney Cells, B.1.617.2 Delta Variant) | IC50 ([1]; Vero E6, hydrochloride) |
| --- | --- | --- | --- | --- | --- | --- | --- | --- | --- | --- | --- | --- |
| CCC(CC)COC(=O)[C@H](C)N[P@](=O)(OC[C@H]1O[C@@](C#N)(c2ccc3c(N)ncnn23)[C@H](O)[C@@H]1O)Oc1ccccc1 [Remdesivir] | 15 µM | 104.26% | 8.24 µM | – | – | – | – | – | – | – | – | – |
| CCN(CC)CCCC(C)Nc1ccnc2cc(Cl)ccc12 (stereo not drawn) [Chloroquine] | 15 µM | – | 8.3 µM | – | – | – | – | – | – | – | – | – |
| CN(Cc1cc(Br)cc(Br)c1N)C1CCCCC1 [BHH, Bromhexine hydrochloride] | 18.75 µM | 74.57% | 17.7 µM | blocked viral entry completely | ~10% | – | – | – | – | – | – | – |
| CCOC(=O)[C@H]1O[C@@H]1C(=O)N[C@@H](CC(C)C)C(=O)NCCC(C)C [Aloxistatin] | 15 µM | 85.17% | 9.84 µM | – | – | 9.82 µM | – | – | – | – | – | – |
| Nc1c(Br)cc(Br)cc1CN[C@H]1CC[C@H](O)CC1 [AMB, 4-[(2-amino-3,5-dibromophenyl)methylamino]cyclohexan-1-ol; hydrochloride] | 150 µM | 88.38% | ~98 µM | – | 6% | – | 48% | 95% | 19% | 50% | 100% | 98.2 µM |
| CC(C)(C)[C@H](NC(=O)C(F)(F)F)C(=O)N1C[C@H]2[C@@H]([C@H]1C(=O)N[C@H](C#N)C[C@@H]1CCNC1=O)C2(C)C [PF-07321332] | 10 µM | 96.28% | – | – | – | 1.98 µM | – | – | – | – | – | – |
